In patent US7247615B2, “Peptide agonists of prostate-specific antigen and uses therefor” (priority 2001, dated 2007):

Experiments:
[1] = system: HLA-A2/K^b transgenic mice; assay: Immunization of HLA-A2.1/Kb transgenic mice with peptide-pulsed DCs, IFN-γ production by T cells; assay type: in vivo, mouse; settings: 24 h
Text: Transgenic Mice. HLA-A2.1/K^b transgenic mice were kindly provided by Dr. L. Sherman (Scripps Laboratories, San Diego, Calif.). Transgenic mice express the product of the HLA-A2.1/Kb chimeric gene in which the alpha-3 domain of the heavy chain is replaced by mouse H-2/K^b domain, but the HLA-A2.1 alpha-1 and alpha-2 domains are unaltered (A. Vitiello et al., 1991, J. Exp. Med. 173:1007–1015; V. H. Engelhard et al., 1991, J. Immunol. 46:1226–1232).
In Vivo Immunization and Murine T cell Cultures. Three groups of HLA-A2.1/K^b transgenic mice (three mice per group) were immunized s.c. (subcutaneously) in the base of the tail with PSA-3 peptide-pulsed HLA-A2.1/K^b DC, PSA-3A peptide-pulsed DCs from HLA-A2.1/K^b transgenic mice, or DCs only. Peptides were used at a concentration of 50 μg/ml and DCs were used at 1×10^6 cell/mouse/injection. A total of three injections were given to each animal, 2 weeks apart. Mice injected with DCs only were used as controls. Mice were sacrificed 7 days after the last injection, and spleen cells were restimulated in vitro with 25 μg/ml of PSA-3 or PSA3A peptide with irradiated syngeneic spleen cell for 6 days. The cytokine production of these bulk cultures was tested. Peptide-pulsed Jurkat A2 (JA2 K^b) cells were used as stimulator cells. Jurkat 0201 K^b cells are stable transfectants of the human T cell leukemia line, Jurkat, which express the product of HLA-A0201K^b climeric gene (L. A. Sherman et al., 1992, Science 258:815–818).
The HLA-A2/K^b transgenic mouse has been previously reported to aid in the determination of the immunogenicity of HLA-A2 peptides for humans. This in vivo system was thus employed to further analyze and compare the immunogenicity of the PSA-3A peptide with that of the native PSA-3 peptide. DCs from the HLA-A2/K^b transgenic mice were pulsed with either the PSA-3 or the PSA-3A peptide and used to vaccinate HLA-A2b mice. DCs alone (no peptide) were also used as a control vaccine. After three vaccinations at 2-week intervals, T cells were isolated from splenocytes obtained 2 weeks after the last vaccination. The T cells were then incubated with Jurkat A2/K^b cells pulsed with the PSA-3 peptide, the PSA-3A peptide, or no peptide, and production of INF-γ was measured from supernatants after 24 h.

[2] = system: C1R-A2 cells; assay: 111In release cytotoxic assay, peptide-pulsed targets; assay type: cell-based, human
[3] = target: T1, HLA-A2 (Homo sapiens, UniProt P04439, D140Y/D185E/D98H/E176V/E277Q/G131W/G231S/I119V/I121R/I166T/I218V/L300P/L318F/N151K/N90K/P208A/P217A/Q86G/Q94H/R138H/R169H/T345S); assay: Stability of peptide-HLA-A2 complex on T2A2 cells (brefeldin A); assay type: binding; settings: 50 μg/ml overnight, 8-h observation period, FIG. 2
T1 construct: endogenous in cells; host or cells: T2A2 / 174CEM-T2 (T2) transport deletion mutant cell line
Protocol: FIG. 2. Comparison of the stability of the complex of the PSA-3 or PSA-3A peptide with HLA-A2. T2A2 cells were incubated with PSA-3 (open squares) or PSA-3A (closed squares) peptide at a concentration of 50 μg/ml overnight and then washed free of unbound peptide and incubated with brefeldin A to block delivery of new class I molecules to cell surface. At indicated times, cells were stained for the presence of surface peptide-HLA-A2 complexes. Results are expressed in relative % binding as compared to 100% binding at time zero.
Studies were then undertaken to examine the stability of the peptideMHC complex for peptides PSA-3 and PSA-3A. Peptides were incubated with T2A2 cells overnight, washed free of unbound peptide and incubated with brefeldin-A to block delivery of new class I molecules to the cell surface. At various time points, cells were analyzed for the presence of peptide-HLA-A2 complexes. […] Thus, both the ability of the peptide to bind MHC (FIGS. 1A–1B) and the stability (FIG. 2), i.e., avidity of the peptide-MHC complex, are greater for the PSA-3A peptide than the native PSA-3 peptide.

[4] = target: T1, HLA-A2; assay: Peptide binding to HLA-A2 on T2A2 cells (flow cytometry)
Protocol: Single-color flow cytometric analysis. The method for single-color flow cytometric analysis was described previously (F. Guadagni et al., 1990, Cancer Res. 50:6248–6255). Briefly, cells were washed three times with cold Ca^2+ and Mg^2+-free DPBS and then stained for 1 h with mAb against HLA-A2 (A2,69, One Lambda, Inc., Canoga Park, Calif.), using 10 μg of the 1× working dilution per 10^6 cells. Mineral oil plasmacytoma-104E (Cappel/Organon Teknika Corp., West Chester, Pa.) was used as an isotype control. The cells were washed three times and incubated with a 1:100 dilution of fluorescein isothiocyanate (FITC)-labeled goat anti-mouse immunoglobulin (IgG) (Kirkegaard and Perry Laboratories, Gaithersburg, Md.). The cells were immediately analyzed using a Becton Dickinson FACScan equipped with a blue laser with an excitation of […] at 488 nm. Data were gathered from 10,000 live cells, stored and used to generate results.
Peptide Binding to HLA-A2. […] Briefly, 1×10^6 cells in serum-free Iscove's modified Dulbecco's complete medium were incubated with peptides at a concentration of 50 μg/ml in 24 well culture plates at 37° C. in 5% CO2. Flow cytometry for peptide binding was performed using T2 cells and single-color analysis. After cells were washed three times in DPBS, as described above, they were incubated for 1 h with HLA-A2 specific MAb (One Lambda, Inc.) using 10 μg of a 1× working dilution per 10^6 cells. UPC-10 (Cappel/Organon Teknika) was used as isotype control. The cells were washed three times and incubated with 1:100 dilution of FITC-labeled anti-mouse IgG (Becton Dickinson). Analysis was conducted with the FACScan, as described above. Cells were maintained on ice during all cell preparation and staining.
The four analogs were then tested for binding to the HLA-A2 positive T2A2 cells as described in the Examples section. The NCA peptide was previously shown to not bind to HLA-A2, and was used as a negative […] control. Peptides were added to T2A2 cells at concentrations of 0 to 50 μg/ml.

Sequence: VLSNDVCAQV (SEQ ID NO:3) [PSA-3A]
- Production of IFN-γ ([1]; label = peptide pulsed on immunizing DCs, Jurkat A2/K^b cells pulsed with PSA-3A (25 μg/ml)): 6,218.9 pg/ml/10^6 cells
- Production of IFN-γ ([1]; label = peptide pulsed on immunizing DCs, Jurkat A2/K^b cells with no peptide): <37.0 pg/ml/10^6 cells
- Production of IFN-γ ([1]; label = peptide pulsed on immunizing DCs, T cells restimulated with Jurkat A2/K^b cells pulsed with PSA-3 (25 μg/ml)): 5,094.3 pg/ml/10^6 cells
- Production of IFN-γ ([1]; mice immunized with DCs (no peptide), label = peptide pulsed on Jurkat A2/K^b cells): <37.0 pg/ml/10^6 cells
- Fold less peptide than PSA-3 peptide necessary for lysis ([2]; T-PSA-3A line, C1R-A2 targets, E:T 25:1, FIG. 4A): approximately 8 fold
- Fold less peptide required to achieve similar levels of lysis ([2]; T-PSA-3 line, C1R-A2 targets, E:T 25:1): approximately 8 fold
- Lysis of peptide-pulsed C1R-A2 cells by T-PSA-3A line ([2]; peptide 25 μg/ml, IVS-3, two E:T ratios, FIG. 3A): to a greater extent than cells pulsed with the PSA-3 peptide
- Lysis of peptide-pulsed C1R-A2 cells by T-PSA-3 line ([2]; peptide 25 μg/ml, IVS-3, two E:T ratios, FIG. 3B): to a greater extent than those pulsed with the PSA-3A peptide
- Stability of peptide-HLA-A2 complexes [3]: more stable than PSA-3 complexes
- Binding to HLA-A2 at lower peptide concentrations ([4]; FIG. 1B): clearly bound higher levels of HLA-A2 than PSA-3
- Binding to HLA-A2 (relative fluorescence, MFI) ([4]; peptide 0 to 50 μg/ml, FIG. 1A): higher levels than PSA-3
